Experiments:
Assay type in all cases: physicochemical
[1] = Dissolving power for UV filters (statement in words); details: for dissolving properties for UV filters: general statement; for dissolving power for UV filters: in contrast to other high-spreading oils, for example dialkyl ethers or cyclomethicone
[2] = High-spreading property (statement in words); details: general statement
Zeidler spreading value = assay: Zeidler spreading value
Source text: in which R^1 and R^2 independently of one another represent linear or branched alkyl and/or alkenyl groups containing 1 to 22 carbon atoms, with the proviso that they contain in all at least 12, preferably 12 to 50 and more preferably 15 to 25 carbon atoms. The compounds are obtained by transesterifying dimethyl or diethyl carbonate, for example, with the corresponding fatty alcohols in known manner. Accordingly, the fatty carbonates may be symmetrical or non-symmetrical. However, carbonates in which R^1 and R^2 are the same and represent C6-16 alkyl groups are preferably used. Transesterification products of dimethyl or diethyl carbonate with octanol, 2-ethylhexyl alcohol, decanol, cetyl alcohol, cetearyl alcohol, stearyl alcohol, isostearyl alcohol, oleyl alcohol, behenyl alcohol and/or erucyl alcohol in the form of their mono- and diesters or technical mixtures and Guerbet alcohols containing 8 to 24 carbon atoms are particularly preferred. […] The dialkyl carbonates may be used in quantities of 1 to 30% by weight, preferably 5 to 20% by weight and more preferably 8 to 10% by weight, based on the composition.

[3] = Volatility of the oil (remark in Table 1); details: remark at Zeidler spreading value

Row | Zeidler spreading value (Zeidler spreading value) [mm^2/10 mins] | volatility [3] | Molecule | dissolving properties for UV filters [1] | dissolving power for UV filters [1] | spreading [2]
1 | 1600 | – | CCCCCCCCOC(=O)OCCCCCCCC [di-n-octyl carbonate] | excellent dissolving properties for UV filters | distinctly higher dissolving power for UV filters | high-spreading
2 | > 1600 | volatile | Cyclomethicone [reference compound] | – | – | –

Row | Molecule | Zeidler spreading value (Zeidler spreading value) [mm^2/10 mins] | volatility [3] | dissolving properties for UV filters [1] | dissolving power for UV filters [1] | spreading [2]
3 | CCCCC(CC)COC(=O)OCC(CC)CCCC (stereo not shown) [di-2-ethylhexyl carbonate] | 1600 | – | excellent dissolving properties for UV filters | distinctly higher dissolving power for UV filters | high-spreading
